Measured values as given in paper PMC4569415, “Pro-Oxidant Activity of Amine-Pyridine-Based Iron Complexes Efficiently Kills Cancer and Cancer Stem-Like Cells” (PLoS ONE, 2015).

Tested on: MCF-7 cells
Test: ROS measurement with H2DCFDA
Type: cell-based, human
Conditions: MCF-7, 10 μmol/L, 24 h
Procedure: Cellular ROS content was determined using the 2′,7′-dichlorodihydrofluorescein diacetate probe (H2DCFDA). Cells were seeded in 24-well plates (50 000 cells/well) in phenol red-free DMEM 24 h prior to treatments. Cells were treated with different concentrations of compound 1, 2 and 5 (2.5, 5 or 10 μmol/L) or vehicle alone as a control, for 5 or 24 hours at 37°C. In some experiments, cells were co-treated with the compounds plus 5 mmol/L NAC. After treatments, cells were washed with PBS and incubated with 1 μmol/L H2DCF-DA in PBS for 30 minutes in the dark. After washing, cells were collected with trypsin and analyzed by flow cytometry using a FACS-Calibur flow cytometer (Becton-Dickinson®, Immunofluorometry Systems, Mountain View, CA, USA). The geometric mean fluorescence intensity of 10 000 cells was established using CellQuestTM software (Becton Dickinson). The fluorescence fold-increase versus untreated cells was determined for each treatment.

## CN(C)c1ccnc(CN2CCC[C@H]2[C@@H]2CCCN2Cc2cc(N(C)C)ccn2)c1 [Compound 2]
  increase in ROS levels: 7 fold
